Laboratory results reported in patent US8486991B2, “Enantiomerically pure phosphoindoles as HIV inhibitors” (Idenix Pharmaceuticals, Inc., priority 2006, dated 2013).
Where two headings read alike, the source gives them in different places. *1 amine or outer side, *2 acyl side, *3 side chain or, on linkers, in order; H or OH if unused. Where a SMILES comes first, the peptide text is derived from it. Bridges are numbered along the chain shown (N, C = ends). Roman numbers before positions name the chains, in order. [ ]: non-standard residue; d: D form. Actinocin(9to1) = Cc1c2oc3c(C)ccc(C(=O)[*:1])c3nc-2c(C(=O)[*:2])c(N)c1=O; NMeV = CN[C@H](C(=O)O)C(C)C; Sar = CNCC(=O)O

How the values were obtained:
HIV-2 ROD = HIV-2 ROD WT in H9 cell assay; format: cell-based; conditions: Human immunodeficiency virus 2, H9; Table 18; highest concentration assayed 1.25 μM; read-out: EC50 Values
Method: The susceptibility of HIV type 2 ROD in H9 cells to Compound I and Compound III was determined against zidovudine (AZT) as a control.

[1] = biological target: T1, human DNA polymerase alpha (Homo sapiens, UniProt P09884); experiment: Human cellular DNA polymerase alpha assay; format: biochemical
T1 sequence (P09884 1-1462): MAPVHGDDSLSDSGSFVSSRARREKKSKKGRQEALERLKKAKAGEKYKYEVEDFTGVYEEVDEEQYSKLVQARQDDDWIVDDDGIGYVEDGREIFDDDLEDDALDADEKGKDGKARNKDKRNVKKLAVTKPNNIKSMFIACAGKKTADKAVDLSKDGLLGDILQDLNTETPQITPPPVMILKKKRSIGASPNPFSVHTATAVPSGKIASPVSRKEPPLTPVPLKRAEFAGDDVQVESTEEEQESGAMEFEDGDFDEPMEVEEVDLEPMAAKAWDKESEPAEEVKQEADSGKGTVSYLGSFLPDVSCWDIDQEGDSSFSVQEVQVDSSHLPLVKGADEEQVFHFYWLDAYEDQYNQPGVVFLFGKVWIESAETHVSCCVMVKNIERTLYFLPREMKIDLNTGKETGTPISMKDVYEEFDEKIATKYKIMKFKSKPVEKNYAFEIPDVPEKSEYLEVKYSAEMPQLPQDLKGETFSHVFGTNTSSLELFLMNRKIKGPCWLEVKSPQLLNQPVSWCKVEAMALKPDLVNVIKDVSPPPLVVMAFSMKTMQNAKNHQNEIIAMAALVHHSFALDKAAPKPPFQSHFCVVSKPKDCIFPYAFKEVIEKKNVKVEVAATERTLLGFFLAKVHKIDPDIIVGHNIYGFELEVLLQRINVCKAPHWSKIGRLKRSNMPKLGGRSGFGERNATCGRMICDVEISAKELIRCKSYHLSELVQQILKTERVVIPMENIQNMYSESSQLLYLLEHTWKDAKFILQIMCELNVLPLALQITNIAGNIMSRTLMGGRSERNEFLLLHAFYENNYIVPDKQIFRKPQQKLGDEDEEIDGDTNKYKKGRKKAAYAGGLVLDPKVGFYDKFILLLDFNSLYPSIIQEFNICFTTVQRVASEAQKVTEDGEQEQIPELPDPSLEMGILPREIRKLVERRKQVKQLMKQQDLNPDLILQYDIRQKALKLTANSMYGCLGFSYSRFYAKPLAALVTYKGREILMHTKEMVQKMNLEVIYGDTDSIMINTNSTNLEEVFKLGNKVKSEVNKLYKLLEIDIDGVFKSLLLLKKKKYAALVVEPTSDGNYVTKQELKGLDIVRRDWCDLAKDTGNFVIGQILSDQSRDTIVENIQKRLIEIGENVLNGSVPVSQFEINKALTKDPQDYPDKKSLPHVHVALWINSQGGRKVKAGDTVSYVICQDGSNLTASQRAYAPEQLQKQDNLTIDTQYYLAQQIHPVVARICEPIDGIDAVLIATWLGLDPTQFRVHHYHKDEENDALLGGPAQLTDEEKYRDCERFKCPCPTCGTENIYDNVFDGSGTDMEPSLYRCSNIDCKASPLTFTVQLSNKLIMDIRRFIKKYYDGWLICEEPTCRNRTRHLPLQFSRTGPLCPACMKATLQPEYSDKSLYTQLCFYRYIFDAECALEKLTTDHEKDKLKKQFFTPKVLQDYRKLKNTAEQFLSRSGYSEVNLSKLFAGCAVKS
From the text: (§1) HIV RT, like other viral polymerase, shares limited structural homology with the cellular DNA polymerases responsible for normal nuclear and mitochondrial DNA synthesis and repair. This raises the formal possibility that inhibitors of HIV RT might inhibit cellular polymerases, resulting in cellular toxicity. In particular, inhibition of polymerase gamma has the potential to result in mitochondrial toxicity. The ability of Compound I and Compound III to inhibit cellular DNA polymerases was assessed using standard in vitro assays (Table 5).

[2] = biological target: human DNA polymerase beta (Homo sapiens, UniProt P06746); experiment: Human cellular DNA polymerase beta assay; format: biochemical
From the text: as §1

[3] = biological target: T2, human DNA polymerase gamma (Homo sapiens, UniProt P54098); experiment: Human cellular DNA polymerase gamma assay; format: biochemical
T2 sequence (P54098 1-1239): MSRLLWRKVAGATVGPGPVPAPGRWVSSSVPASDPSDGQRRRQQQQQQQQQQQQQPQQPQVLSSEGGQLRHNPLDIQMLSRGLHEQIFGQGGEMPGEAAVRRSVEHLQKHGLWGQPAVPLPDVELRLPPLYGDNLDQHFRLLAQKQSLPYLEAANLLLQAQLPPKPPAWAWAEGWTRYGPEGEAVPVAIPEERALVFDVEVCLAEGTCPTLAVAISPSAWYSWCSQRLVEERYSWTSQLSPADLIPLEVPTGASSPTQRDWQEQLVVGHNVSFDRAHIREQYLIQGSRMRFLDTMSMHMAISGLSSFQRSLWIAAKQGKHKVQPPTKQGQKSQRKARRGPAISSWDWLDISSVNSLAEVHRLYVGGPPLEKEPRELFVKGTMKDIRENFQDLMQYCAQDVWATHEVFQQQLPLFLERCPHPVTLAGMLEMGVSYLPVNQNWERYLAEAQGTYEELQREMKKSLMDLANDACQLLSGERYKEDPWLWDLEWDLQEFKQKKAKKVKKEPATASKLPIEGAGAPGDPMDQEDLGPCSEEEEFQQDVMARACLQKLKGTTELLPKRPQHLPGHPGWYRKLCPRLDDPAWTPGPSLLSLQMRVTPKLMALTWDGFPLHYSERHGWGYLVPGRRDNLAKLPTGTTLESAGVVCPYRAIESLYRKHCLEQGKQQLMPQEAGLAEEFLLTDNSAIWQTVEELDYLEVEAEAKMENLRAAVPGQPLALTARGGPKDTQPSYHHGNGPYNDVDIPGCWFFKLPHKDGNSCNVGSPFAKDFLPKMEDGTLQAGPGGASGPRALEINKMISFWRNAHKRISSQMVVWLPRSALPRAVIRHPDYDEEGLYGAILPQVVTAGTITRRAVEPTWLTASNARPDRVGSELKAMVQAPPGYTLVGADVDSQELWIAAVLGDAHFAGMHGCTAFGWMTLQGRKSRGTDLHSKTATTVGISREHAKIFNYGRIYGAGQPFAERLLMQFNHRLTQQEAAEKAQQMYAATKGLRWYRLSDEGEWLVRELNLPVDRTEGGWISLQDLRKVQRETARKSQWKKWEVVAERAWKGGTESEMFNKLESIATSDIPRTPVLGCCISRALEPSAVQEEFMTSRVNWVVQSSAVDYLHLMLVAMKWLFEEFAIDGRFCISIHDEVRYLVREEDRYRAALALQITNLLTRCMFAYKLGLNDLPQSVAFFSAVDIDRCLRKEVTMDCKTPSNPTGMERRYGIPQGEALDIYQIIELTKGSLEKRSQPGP
From the text: as §1

[4] = test system: HIV-1 BH10 wild-type virus; experiment: microbe, parasite or virus in culture; format: cell-based; conditions: Human immunodeficiency virus 1, MT4, read-out: EC50, BH10, Example 16 comparative tables; unit inferred; several lines per compound
[5] = test system: HIV-1 BH10 K103N mutant virus; experiment: microbe, parasite or virus in culture; format: cell-based; conditions: Human immunodeficiency virus 1, MT4, read-out: EC50, K103N, Example 16 comparative tables; unit inferred
[6] = test system: HIV-1 BH10 wild-type virus; experiment: CPE / cell protection assay, MT-4 cells, BH10 wild-type; format: cell-based; conditions: Human immunodeficiency virus 1, MT4; Cell Protection Assay tables; unit inferred; read-out: EC50, BH10
Method: (§2) The activity of the compounds was also assessed with the same virus and cell type using a different assay readout based on cytopathic effect (CPE).
(§3) MT-4 cells (Source: NIH Catalog #120) were seeded onto 96-well cell culture plates (1×10^4 cells per well in 50 μL).
(§4) The final DMSO concentration in the assay was 0.5% in 120 μL. Cell cultures were then incubated at 37° C./5% CO2 for 4 days. Then, Cell Titer 96 AQueous One Solution Cell Proliferation Assay (Promega) was used to measure cell viability. Briefly, the One Solution Reagent was added directly to culture wells (20 μL/well), incubated for 5 hours, and the absorbance was recorded at 492 nm using the Sunrise Tecan Spectrophotometer.
(§5) The EC50 values were determined from the percent inhibition versus concentration data using a sigmoidal non-linear regression analysis based on four parameters with Tecan Magellan software.

[7] = test system: HIV-1 BH10 K103N mutant virus; experiment: microbe, parasite or virus in culture; format: cell-based; conditions: Human immunodeficiency virus 1, MT4, read-out: EC50, K103N
Method: as §2, §3, §4, §5

CYP3A4 = CYP3A4 (Homo sapiens, UniProt P08684); experiment: Recombinant CYP450 inhibition, fluorometric, CYP3A4; format: in vitro ADME; set-up: from tissue; host or cells: pooled human liver microsomes
Method: (§6) Compounds were assayed using recombinant human microsomal proteins with fluorometric substrates. Signal was measured with a Fusion plate reader utilizing the appropriate excitation and emission wavelength set to detect the specific metabolite: […]

[8] = test system: CYP3A4 (activation of PXR in DPX2 cells); experiment: CYP3A4 induction screen in DPX2 cells; format: cell-based, human; conditions: extent compared with rifampicine, mifepristone, androstanol
From the text: The potential for in vitro induction of CYP3A4 was screened in DPX2 cells. The DPX2 cell line is a derivative of a human hepatocellular carcinoma cell line (HepG2) transformed with the human pregnane x receptor (PXR) and a reporter gene vector containing the enhancer region of CYP3A4. The potential for in vitro induction of CYP1A2 was screened in CYP1A2-DRE cells. The CYP1A2-DRE cell line is a stably transformed HepG2 cells with dioxin response elements (DRE) and reporter gene containing CYP1A2 promoter elements. The extent of CYP3A4 induction was determined by comparing the activation of PXR obtained with test article to that obtained with rifampicine (potent inducer), mifepristone (moderate inducer) and androstanol (weak inducer). The extent of CYP1A2 induction was determined by comparing the activation of the aryl hydrocarbon receptor (AhR) obtained with test article to that obtained with TCDD (potent inducer), omeprazole (moderate inducer), and 2-acetylaminofluorene (weak inducer).

CYP2C9 = CYP2C9 (Homo sapiens, UniProt P11712); experiment: Recombinant CYP450 inhibition, Luciferin-H, CYP2C9; format: in vitro ADME; set-up: from tissue; host or cells: pooled human liver microsomes; conditions: highest concentration tested 10 μM
Method: CYP2C9 inhibition was performed by incubating a luminogenic CYP450 substrate Luciferin-H with CYP2C9 and an NADPH regeneration system. Luminescence measured using a Fusion plate reader.

CYP2D6 = CYP2D6 (Homo sapiens, UniProt P10635); experiment: Recombinant CYP450 inhibition, fluorometric, CYP2D6; format: in vitro ADME; set-up: from tissue; host or cells: pooled human liver microsomes; conditions: recombinant human CYP2D6 microsomal protein, read-out: percentage of inhibition at the highest concentration tested, CYP2D6
Method: as §6

[9] = Table 6, N=4, read-out: Mean IC50 Values ± Standard Deviation, DNA Pol Gamma

Chain of CYP3A4 (P08684 whole entry, the tested form may be a part): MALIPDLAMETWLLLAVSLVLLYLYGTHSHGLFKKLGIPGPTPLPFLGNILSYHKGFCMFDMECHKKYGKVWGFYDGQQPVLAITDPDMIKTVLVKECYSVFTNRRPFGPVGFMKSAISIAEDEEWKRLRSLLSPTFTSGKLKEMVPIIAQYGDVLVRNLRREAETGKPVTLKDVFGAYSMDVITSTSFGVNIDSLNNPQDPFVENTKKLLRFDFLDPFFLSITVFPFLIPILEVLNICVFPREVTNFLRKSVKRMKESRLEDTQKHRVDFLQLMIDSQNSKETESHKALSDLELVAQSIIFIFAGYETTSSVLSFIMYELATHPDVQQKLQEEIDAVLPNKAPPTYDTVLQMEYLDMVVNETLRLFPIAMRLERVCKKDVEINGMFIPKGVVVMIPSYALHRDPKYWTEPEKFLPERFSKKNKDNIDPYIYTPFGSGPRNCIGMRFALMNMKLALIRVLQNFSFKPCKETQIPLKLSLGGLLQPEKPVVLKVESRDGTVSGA
Chain of CYP2C9 (P11712 whole entry, the tested form may be a part): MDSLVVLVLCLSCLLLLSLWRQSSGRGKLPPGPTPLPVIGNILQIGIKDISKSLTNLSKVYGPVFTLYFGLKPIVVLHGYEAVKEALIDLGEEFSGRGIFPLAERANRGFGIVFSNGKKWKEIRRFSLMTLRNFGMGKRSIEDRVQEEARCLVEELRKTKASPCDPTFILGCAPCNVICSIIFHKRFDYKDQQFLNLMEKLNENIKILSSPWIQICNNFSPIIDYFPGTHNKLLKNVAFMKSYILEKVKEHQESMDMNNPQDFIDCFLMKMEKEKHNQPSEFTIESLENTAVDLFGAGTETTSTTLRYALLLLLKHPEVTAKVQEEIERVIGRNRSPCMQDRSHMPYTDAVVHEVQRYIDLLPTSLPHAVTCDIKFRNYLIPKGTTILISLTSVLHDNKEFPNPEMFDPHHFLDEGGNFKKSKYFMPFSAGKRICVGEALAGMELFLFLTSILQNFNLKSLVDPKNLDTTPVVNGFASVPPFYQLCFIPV
Chain of CYP2D6 (P10635 whole entry): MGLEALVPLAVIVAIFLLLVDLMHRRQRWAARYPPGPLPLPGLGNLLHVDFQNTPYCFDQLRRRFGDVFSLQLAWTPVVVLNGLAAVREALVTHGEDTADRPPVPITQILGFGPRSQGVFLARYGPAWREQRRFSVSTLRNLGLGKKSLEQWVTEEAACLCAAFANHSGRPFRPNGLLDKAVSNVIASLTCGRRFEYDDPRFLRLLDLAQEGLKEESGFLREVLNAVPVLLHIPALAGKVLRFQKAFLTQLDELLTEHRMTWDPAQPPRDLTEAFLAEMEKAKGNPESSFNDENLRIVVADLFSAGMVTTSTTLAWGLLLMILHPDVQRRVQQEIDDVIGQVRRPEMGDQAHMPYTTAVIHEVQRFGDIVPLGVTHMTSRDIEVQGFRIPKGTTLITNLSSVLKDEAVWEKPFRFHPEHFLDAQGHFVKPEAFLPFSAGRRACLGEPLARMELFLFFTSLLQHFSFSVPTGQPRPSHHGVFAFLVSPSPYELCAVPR

Question: How did the EC50 (HIV-2 ROD) turn out when Cc1cn([C@H]2C[C@H](N=[N+]=[N-])[C@@H](CO)O2)c(=O)[nH]c1=O [AZT, zidovudine, reference compound] was run?
Answer: 0.162 ± 0.0767 µM

Question: Which results are given for Cc1c2oc3c(C)ccc(C(=O)N[C@@H]4C(=O)N[C@H](C(C)C)C(=O)N5CCC[C@H]5C(=O)N(C)CC(=O)N(C)[C@@H](C(C)C)C(=O)O[C@@H]4C)c3nc-2c(C(=O)N[C@@H]2C(=O)N[C@H](C(C)C)C(=O)N3CCC[C@H]3C(=O)N(C)CC(=O)N(C)[C@@H](C(C)C)C(=O)O[C@@H]2C)c(N)c1=O [Act. D, actinomycin D, reference compound] (I: T[dV]P[Sar][NMeV] / II: T[dV]P[Sar][NMeV]; ester I:1-I:C, II:1-II:C; linker I:N-II:N via Actinocin(9to1))?
Answer: IC50 ([1]; Table 5, read-out: Average IC50 Values ± Standard Deviation, DNA Pol Alpha): 16.1 ± 11.2 µM; IC50 ([1]; Table 6, N=4, read-out: Mean IC50 Values ± Standard Deviation, DNA Pol Alpha): 16.1 ± 11.2 µM; IC50 ([2]; Table 5, read-out: Average IC50 Values ± Standard Deviation, DNA Pol Beta): 23 ± 10.4 µM; IC50 ([2]; Table 6, N=4, read-out: Mean IC50 Values ± Standard Deviation, DNA Pol Beta): 23 ± 10.4 µM; IC50 ([3]; Table 5, preliminary data from a single experiment, read-out: Average IC50 Values, DNA Pol Gamma): 16.9 µM; IC50 [3, 9]: 11.8 ± 1.9 µM

Question: With CO[P@@](=O)(c1cc(C)cc(/C=C/C#N)c1)c1c(C(N)=O)[nH]c2ccc(Cl)c(F)c12 [Compound II, (2-Carbamoyl-5-chloro-4-fluoro-1H-indol-3-yl)-[3-((E)-2-cyano-vinyl)-5-methyl-phenyl]-(S)-phosphinic acid methyl ester] as the compound, how does the EC50 [4] read?
Answer: 192 nM

Question: And the EC50 [5]?
Answer: 920 nM

Question: And the EC50 [6]?
Answer: 62 ± 19 nM

Question: What about the EC50 [7] of the same compound?
Answer: 0.277 ± 0.099 µM

Question: And the IC50 (CYP3A4)?
Answer: 3.21 µM

Question: With CO[P@@](=O)(c1cc(C)cc(/C=C/C#N)c1)c1c(C(N)=O)[nH]c2ccc(Cl)cc12 [IV, (2-carbamoyl-5-chloro-1H-indol-3-yl)-[3-((E)-2-cyano-vinyl)-5-methyl-phenyl]-(S)-phosphinic acid methyl ester] as the compound, how does the EC50 [6] read?
Answer: 0.2 ± 0.1 nM

Question: And the EC50 [7]?
Answer: 0.0003 µM

Question: What about the “Induction, DPX2 (CYP3A4)” value [8] of the same compound?
Answer: Moderate (n = 1)

Question: And the IC50 (CYP2C9)?
Answer: 3.38 µM

Question: What about the inhibition at 10 µM (CYP2D6) of the same compound?
Answer: 29.1%

Question: And the IC50 (CYP3A4; recombinant, highest concentration tested 10 μM, read-out: IC50, CYP3A4)?
Answer: 2.96 µM

Question: With “dideoxycytidine triphosphate [ddCTP, reference compound]” as the compound, how does the IC50 [3, 9] read?
Answer: 1.5 ± 0.6 µM
